Data taken from patent US6300313A, “Means for treating prostate hypertrophy and prostate cancer” (ASTA Medica Aktiengesellschaft, priority 1999, dated 2001).
Non-standard residues stand in square brackets, D forms with d. Residues, ends and D or L forms follow the SMILES beside them. dPhe(4-Cl) = N[C@H](Cc1ccc(Cl)cc1)C(=O)O; d2Nal = N[C@H](Cc1ccc2ccccc2c1)C(=O)O; dCit = NC(=O)NCCC[C@@H](N)C(=O)O; d3Pal = N[C@H](Cc1cccnc1)C(=O)O

What was measured:
BPH = test: Clinical therapy of BPH with Cetrorelix (Example 1); type: in vivo, patients; settings: Example 1 therapy regimen
Procedure: Cetrorelix is administered in a dose of 0.5 mg to 2 mg daily for 4 to 8 weeks for the therapy of BPH. A dose of 5 mg to 30 mg, dispensed once per week or every 10 days also over a time period of 4 to 8 weeks as well as one every two weeks or one injection per month of 20 mg to 60 mg can also decisively improve the clinical symptoms and signs. […] The prostate volume decreases by 20 to 40% during the treatment time of 4 to 8 weeks. […] In addition, at least 30% of the patients achieve an improvement of the urine flow of 6 ml/sec with this therapy. This is almost equivalent to an improvement like that associated with the golden standard operation, and in considerably shorter time. […] These clinical benefits continue for at least 3 to 6 months after therapy. This allows a long-term therapy of BPH with only an intermittent treatment of 2 to max. 4 injection cycles over 4 to 8 weeks.

BPH patients = settings: 500 μg every 12 hours for 4 weeks, cited from earlier work
[1] = test system: Prostate carcinoma patients; settings: cited from earlier work

CC(=O)N[C@H](Cc1ccc2ccccc2c1)C(=O)N[C@H](Cc1ccc(Cl)cc1)C(=O)N[C@H](Cc1cccnc1)C(=O)N[C@@H](CO)C(=O)N[C@@H](Cc1ccc(O)cc1)C(=O)N[C@H](CCCNC(N)=O)C(=O)N[C@@H](CC(C)C)C(=O)N[C@@H](CCCNC(=N)N)C(=O)N1CCC[C@H]1C(=O)N[C@H](C)C(N)=O [Cetrorelix] (Ac-[d2Nal][dPhe(4-Cl)][d3Pal]SY[dCit]LRP[dA]-NH2)
quality of life (BPH): significant improvements
sexual performance (BPH): No limitations in sexual performance are observed
testosterone level (BPH): Submaximal decreases of testosterone occur, but these are above those levels associated with castration
increase of the peak flow of the urine (BPH; 4 to 8 weeks): approximately 3 ml/sec
patients achieving an improvement of the urine flow of 6 ml/sec (BPH; 4 to 8 weeks): at least 30%
symptoms of dysuria and prostate volume (BPH patients): distinct decrease
testosterone levels, initially (BPH patients; initial phase): lowering in testosterone levels to a castration level
testosterone levels in the course of treatment (BPH patients; no castration values during the last three weeks): fluctuated at subnormal levels
testosterone levels, initially ([1]; 500 μg every 12 hours for 6 weeks, initial phase): lowering in testosterone levels to a castration level
overall condition of the patient ([1]; end of the 6 weeks of therapy): considerable improvement
testosterone values at the end of therapy ([1]; end of the 6 weeks of therapy): castration levels
